# Assay results taken from patent publication US5493007A, “Platelet aggregation inhibitors having high specificity for GPIIBIIIA” (Genentech, Inc., priority 1994, dated 1996).
# Several values for one entry are separate records, joined by “and”; a condition that tells them apart may be missing. Equal values may be shown once. Where a SMILES comes first, the peptide text is derived from it. Bridges are numbered along the chain shown (N, C = ends). [ ]: non-standard residue; d: D form. The star is where a group is joined. Aad = N[C@@H](CCCC(=O)O)C(=O)O; dOrn = NCCC[C@@H](N)C(=O)O; NH(CH2)4NH2 = NCCCCN*; NH(CH2)3NH2 = NCCCN*; Ava = NCCCCC(=O)O
# Key:
# [1] = target: GP IIb IIIa (Homo sapiens, UniProt P05106+P08514); assay: Fibrinogen-GP IIb IIIa Receptor ELISA Binding Assay; design: from tissue; host or cells: outdated human platelets; details: purified human platelet GP IIb IIIa, fibrinogen-coated plates; read-out: ELISA IC50 Fibrinogen GPIIb IIIa
# Chain of GP IIb IIIa (P08514 32-887 limits assumed): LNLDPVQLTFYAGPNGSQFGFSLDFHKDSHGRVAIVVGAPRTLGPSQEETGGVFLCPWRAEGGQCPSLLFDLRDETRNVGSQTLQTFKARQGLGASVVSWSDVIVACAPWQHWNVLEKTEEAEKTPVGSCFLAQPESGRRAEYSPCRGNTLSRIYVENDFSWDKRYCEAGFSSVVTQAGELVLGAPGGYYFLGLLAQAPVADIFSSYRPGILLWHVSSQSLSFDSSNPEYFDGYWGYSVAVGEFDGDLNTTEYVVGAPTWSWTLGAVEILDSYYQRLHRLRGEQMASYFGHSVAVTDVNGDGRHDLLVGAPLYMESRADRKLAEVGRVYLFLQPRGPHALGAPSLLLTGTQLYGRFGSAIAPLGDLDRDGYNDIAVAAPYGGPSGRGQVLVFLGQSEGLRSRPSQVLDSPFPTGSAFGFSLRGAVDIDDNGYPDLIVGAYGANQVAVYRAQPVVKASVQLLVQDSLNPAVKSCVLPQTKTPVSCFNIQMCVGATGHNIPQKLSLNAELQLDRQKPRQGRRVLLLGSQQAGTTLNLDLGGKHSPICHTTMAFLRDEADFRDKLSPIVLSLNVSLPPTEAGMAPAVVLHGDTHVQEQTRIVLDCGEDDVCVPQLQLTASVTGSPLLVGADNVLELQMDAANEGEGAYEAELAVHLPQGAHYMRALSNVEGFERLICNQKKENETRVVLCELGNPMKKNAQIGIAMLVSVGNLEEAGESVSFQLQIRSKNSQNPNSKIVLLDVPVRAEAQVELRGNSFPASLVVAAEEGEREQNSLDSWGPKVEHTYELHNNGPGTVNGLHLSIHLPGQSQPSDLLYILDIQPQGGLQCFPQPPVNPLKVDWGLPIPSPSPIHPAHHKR
# Chain of GP IIb IIIa (P08514 891-1039 partner limits assumed): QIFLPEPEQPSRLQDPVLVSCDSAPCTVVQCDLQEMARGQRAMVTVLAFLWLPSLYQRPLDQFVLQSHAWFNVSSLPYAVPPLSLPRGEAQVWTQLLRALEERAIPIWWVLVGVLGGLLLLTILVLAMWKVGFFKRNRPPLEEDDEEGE
# Chain of GP IIb IIIa (P05106 27-788): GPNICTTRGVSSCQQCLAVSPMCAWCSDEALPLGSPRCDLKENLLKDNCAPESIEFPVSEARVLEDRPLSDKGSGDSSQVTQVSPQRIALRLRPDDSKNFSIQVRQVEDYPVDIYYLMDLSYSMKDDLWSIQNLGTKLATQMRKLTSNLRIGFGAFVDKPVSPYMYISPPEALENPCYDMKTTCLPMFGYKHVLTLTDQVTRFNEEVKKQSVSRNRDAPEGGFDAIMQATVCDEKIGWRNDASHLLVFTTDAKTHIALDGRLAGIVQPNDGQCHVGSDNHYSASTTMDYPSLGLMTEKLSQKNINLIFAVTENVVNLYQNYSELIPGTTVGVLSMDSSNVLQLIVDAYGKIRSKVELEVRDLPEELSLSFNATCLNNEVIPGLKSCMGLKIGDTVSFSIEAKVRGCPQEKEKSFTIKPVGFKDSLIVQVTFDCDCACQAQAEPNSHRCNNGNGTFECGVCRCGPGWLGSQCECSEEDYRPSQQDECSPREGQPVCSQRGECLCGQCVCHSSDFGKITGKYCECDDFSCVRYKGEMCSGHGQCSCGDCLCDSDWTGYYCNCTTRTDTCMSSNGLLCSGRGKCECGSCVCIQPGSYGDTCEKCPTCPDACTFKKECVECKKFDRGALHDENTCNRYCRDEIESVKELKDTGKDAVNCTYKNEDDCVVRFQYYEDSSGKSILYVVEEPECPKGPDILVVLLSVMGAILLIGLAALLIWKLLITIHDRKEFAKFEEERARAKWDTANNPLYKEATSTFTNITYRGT
# Description: The method used is essentially that described in Nachman and Leung (J. Clin. Invest., 69:263-269 [1982]). The GP IIb IIIa is essentially purified as described in Fitzgerald et al., (Anal. Biochem. 151:169-177 [1985]).
# Outdated human platelets are washed 3 times with 10 mM tris-HCl, 150 mM NaCl (TBS), 1 mM EDTA, pH 7.5, and centrifuged at 2000×g to pellet cells. Cells are lysed in 5 pellet volumes of TBS, 1% Triton X-100, 1 mM Ca2 Cl2, and followed by centrifugation at 30,000×g. The supernatant fraction is collected and the supernatant is loaded onto a concanavalin-A column, previously equilibrated in TBS, 1 mM Ca2 Cl2, 0.1% Triton, 0.05% NaN3 and eluted with 0.2M α-methylmannoside. Fractions are pooled and loaded onto a heparin-agarose column. The flowthrough is collected and concentration on an Amicon YM 30 filter to a volume of approximately 5-10 mi. The concentrate is then applied to an S-300 column (500 ml) and 6 ml fractions are collected. The GP IIb IlIa containing fractions are collected, pooled, and stored at -80° C.
# The purification of fibrinogen is conducted essentially as described by Lipinska et al., (J. Lab. Clin. Med. 507, [1974]). Briefly, a 0.3% w/v solution of human fibrinogen (Kabi #5302) is dissolved in 150 mM NaCl. Saturated (NH4)2 SO4 is added dropwise with stirring to the fibrinogen solution to obtain about 16% saturation. The precipitate is spun down in appropriate size bottles at 2000×g. The supernatant is decanted and the precipitate resuspended in 150 mM NaCl (approximately 50% of the original volume). NH4 SO4 is again added dropwise to obtain 16% saturation. The suspension is spun down and the precipitate is resuspended in Tris-saline in a minimal volume (approximately 5% of the original volume). Any remaining insoluble material is spun down at 2000 rpm in a Sorval type centrifuge and the fibrinogen supernatant is decanted and dialyzed overnight at 4° C. against Tris-saline. Characterization of the fibrinogen is by the Bradford protein assay, SDS-PAGE, and/or Western blotting using well known standard procedures.
# Briefly, 96 well plates are coated (Type Nunc 1 Maxisorp™) with 10 μg/ml purified fibrinogen (100 μl/well), and allowed to stand overnight at 4° C. The plates are washed three times with PBS Tween (0.137M NaCl, 0.003M KCl, 0.008M Na2 HPO4, 0.001M KH2 PO4, pH 7.4 at room temperature, 0.05% Tween-20) and blocked for 1 to 2 hours at room temperature with 200 μl/well TNCNT (which is 0.5% BSA, 20mM Tris, pH 7.5 at room temperature, 120 mM NaCl, 0.2% NAN3, 2mM CaCl2, 0.05% Tween 20, 0.5% BSA [Calbiochem RIA grade or better]) on a plate shaker. The plates are again washed three times with PBS/Tween and then 50 μl of sample in TNCNT is added. The mixture is incubated for 15 minutes at room temperature on a plate shaker. The stock solution of purified GP IIb IIIa receptor from human platelets, (0.4-1.0 mg/ml GP IIb IIIa in 0.1% Triton X-100, 1 mM CaCl2, 20 mM Tris, 150 mM NaCl, 0.05% NaN3 in 0.3M N-acetyl glucosamine pH 7.5, stored at -70° C.), is reconstituted to about 40 μg/ml in TNCNT. Fifty μl of this diluted GP IIb IIIa is then added to each well and incubated on a plate shaker at room temperature. After one hour, the plates are washed four times with PBS/Tween and 100 μl of a polyclonal or monoclonal antibody specific for GP IIIa such as AP3 (1 μg/ml) (See e.g. Newman et al., Blood, 65:227-232 [1985]) in ELISA buffer (PBS, 0.5% BSA, 0.05% Tween 20, 0.01% Thimerasol) is added. After a one hour incubation at room temperature on a plate shaker, the samples are washed 4 times with PBS/Tween. One hundred μl of GAM-HRP (horse radish peroxidase conjugate of goat anti-mouse IgG [Pel-Freeze Cat. 715305-1] dissolved in ELISA buffer) previously diluted to 1:10,000 is then added and the samples are incubated 1 hour at room temperature on a plate shaker. […]
# [2] = target: Fibronectin Receptor (Homo sapiens, UniProt P05556+P08648); assay: Human Fibronectin-Fibronectin Receptor ELISA Assay; format: binding; design: octylglucoside (OG) extracted human placenta; from tissue; host or cells: human placenta; details: human placenta fibronectin receptor, fibronectin-coated plates; read-out: ELISA IC50 Fibronectin FnR
# Chain of Fibronectin Receptor (P08648 42-894 limits assumed): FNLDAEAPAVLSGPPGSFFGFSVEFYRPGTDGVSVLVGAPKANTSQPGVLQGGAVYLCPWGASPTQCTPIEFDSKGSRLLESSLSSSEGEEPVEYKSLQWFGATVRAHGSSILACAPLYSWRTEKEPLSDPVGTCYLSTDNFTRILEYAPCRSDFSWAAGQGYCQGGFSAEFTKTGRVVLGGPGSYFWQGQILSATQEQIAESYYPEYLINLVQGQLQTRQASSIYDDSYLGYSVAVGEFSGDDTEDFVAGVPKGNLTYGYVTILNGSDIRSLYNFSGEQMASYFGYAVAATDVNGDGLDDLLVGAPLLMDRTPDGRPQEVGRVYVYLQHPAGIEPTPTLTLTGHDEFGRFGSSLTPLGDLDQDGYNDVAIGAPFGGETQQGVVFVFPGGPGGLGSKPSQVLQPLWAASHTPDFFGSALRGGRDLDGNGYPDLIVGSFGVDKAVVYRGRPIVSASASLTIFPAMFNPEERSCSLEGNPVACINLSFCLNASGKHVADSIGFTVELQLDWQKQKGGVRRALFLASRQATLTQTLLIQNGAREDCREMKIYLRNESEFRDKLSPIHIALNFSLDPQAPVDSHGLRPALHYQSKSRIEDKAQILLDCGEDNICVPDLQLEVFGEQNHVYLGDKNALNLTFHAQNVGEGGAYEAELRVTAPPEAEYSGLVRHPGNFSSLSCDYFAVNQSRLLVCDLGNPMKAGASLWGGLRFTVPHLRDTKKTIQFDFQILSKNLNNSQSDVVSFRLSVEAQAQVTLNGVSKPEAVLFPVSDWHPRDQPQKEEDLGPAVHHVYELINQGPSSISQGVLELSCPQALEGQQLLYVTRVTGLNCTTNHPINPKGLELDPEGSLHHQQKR
# Chain of Fibronectin Receptor (P08648 895-1049 partner limits assumed): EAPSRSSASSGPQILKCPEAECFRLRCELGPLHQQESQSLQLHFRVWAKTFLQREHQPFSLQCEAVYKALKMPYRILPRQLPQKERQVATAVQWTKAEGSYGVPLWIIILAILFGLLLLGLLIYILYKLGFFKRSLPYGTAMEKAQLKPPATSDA
# Chain of Fibronectin Receptor (P05556 21-798): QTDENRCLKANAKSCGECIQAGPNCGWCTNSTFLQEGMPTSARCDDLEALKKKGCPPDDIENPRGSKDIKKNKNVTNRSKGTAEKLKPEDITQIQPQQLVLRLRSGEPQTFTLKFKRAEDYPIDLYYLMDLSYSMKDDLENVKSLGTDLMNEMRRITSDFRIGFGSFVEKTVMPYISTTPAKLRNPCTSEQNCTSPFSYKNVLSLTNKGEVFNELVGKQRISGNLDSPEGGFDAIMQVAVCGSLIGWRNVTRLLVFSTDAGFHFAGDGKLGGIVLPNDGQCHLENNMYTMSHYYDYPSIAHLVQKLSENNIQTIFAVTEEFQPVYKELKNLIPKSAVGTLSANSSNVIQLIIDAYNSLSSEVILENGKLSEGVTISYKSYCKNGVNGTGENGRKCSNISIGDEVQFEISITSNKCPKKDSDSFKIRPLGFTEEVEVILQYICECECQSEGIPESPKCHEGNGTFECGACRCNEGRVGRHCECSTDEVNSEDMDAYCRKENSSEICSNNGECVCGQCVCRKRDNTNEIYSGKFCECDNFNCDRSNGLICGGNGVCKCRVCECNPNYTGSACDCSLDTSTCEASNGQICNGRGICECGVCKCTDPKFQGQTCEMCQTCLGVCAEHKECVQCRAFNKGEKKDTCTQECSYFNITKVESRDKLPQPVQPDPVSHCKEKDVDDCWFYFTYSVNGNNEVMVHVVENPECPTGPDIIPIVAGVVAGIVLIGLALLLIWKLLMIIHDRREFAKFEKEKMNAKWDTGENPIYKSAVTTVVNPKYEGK
# Description: Fibronectin receptor is purified according to the procedures of Pytela et al., (Methods Enzymol. 144:475 […]). Briefly, fibronectin receptor is purified employing an Arg-Gly-Asp affinity chromatography from (100 mM) octylglucoside (OG) extracted human placenta. The OG extract is filtered over Sepharose 6B GRGDSPK column. The column is washed three times with three column volumes of Tris-buffered saline (TBS) TBS, 1 mM CaCl2, and 25 mM OG. The receptor is eluted with TBS, 20 mM EDTA, and 25 mM Octyl thioglucoside, and is stored in 1 mM CaCl2, 1 mM MgCl2, at -80° C.
# Microtiter plates are coated with 110 μl human fibronectin (at 2 μg/ml) in TBS. Plates are washed three times with TBS containing 0.05% Tween 20. Test inhibitors are then added after washing in 10 microliter aliquots. The fibronectin receptor is added in 2-fold serial dilutions with TBS containing 20 mM octyl glucoside and 2 mM MnCl2. Plates are incubated three hours at room temperature, and washed with 200 μl TBS-Tween 20 buffer. 100 μl of affinity-purffied rabbit anti-human fibronectin receptor antibody is added to the wells and the plates are incubated two hours, washed twice with TBS-Tween and once with distilled water. Affinity-purified goat anti-rabbit IgG conjugated to horseradish peroxidase (100 μl) is added to each well followed by incubation for 60 minutes at room temperature. Plates are again washed twice with TBS-Tween and distilled water. 100 μl of substrate mixture (10 mg o-phenylenediamine in 25 ml 0.1M citrate-phosphate buffer, pH 5.0 6 μ30% H2 O2) is added to the plates and allowed to develop. The development process is stopped by adding 50 μl of 4N H2 SO4 to each well and read at […].
# [3] = test system: New Zealand White rabbits; assay: Rabbit cutaneous bleeding time (CBT); details: for Rabbit BT Ratio: Example 1, at the % P.A. inhibition given
# Description: Unanesthetized male New Zealand White rabbits (2.5-3.5 kg) are placed in a standard rabbit restrainer. Ears are shaved and a 20 G Teflon catheter with flowswitch (Viggo) is placed in the medial artery, flushed with saline and locked with 1 ml of heparinized saline (10 m/ml). A 22 G catheter (Abbott) fitted with an injection cap (Medex) is placed in the marginal vein of the same ear. Saline or a GP IIb IIIa receptor antagonist, at a concentration of 1 to 3 mg/ml, is infused via the venous catheter. At time 0, 41% of the dose is given as a bolus over 2 minutes. The remainder is continuously infused over the following 60 minutes. Blood samples (3.2 ml) are collected into syringes without needles via the arterial catheter at -10, -5, 10, 45, and 60 minutes. The first 0.5 ml is discarded and the following 2.7 ml is collected directly into a syringe containing 0.3 ml of 3.8% sodium citrate. The sample is divided into 1.5 ml aliquots and centrifuged at room temperature for 5 seconds at 12,000 G. The resulting platelet rich plasma (PRP) is used to measure ex-vivo platelet aggregation (XPA). At -10 and 60 minutes an additional 1 cml sample is drawn for an automated blood count (Baker instruments). Catheters are flushed and locked after every sample.
# CBT is measured at -10, -5, 10, and 45 minutes on the opposite ear, using an automated incision-making instrument (Surgicutt®, ITD). An incision (5mm×1 mm deep) is made on the dorsal surface of the ear at sites not supplied by major blood vessels. Blood is blotted away with absorbent paper placed near the incision site, every 2 to 15 seconds, to a maximum of 15 minutes. Cessation of bleeding is defined as no blood forming at the incision site for 15 seconds. The range of duplicate CBT in 40 normal rabbits was 0.88 to 3.38 minutes.
SMILES,IC50 [1] [nM],IC50 [2] [nM],increase in cutaneous bleeding time ([3]; dosed to 95% inhibition of platelet aggregation) [times],Rabbit BT Ratio ([3]; rabbit),"cutaneous bleeding time, result in words [3]",increase in cutaneous bleeding time ([3]; dosed to 100% inhibition of platelet aggregation) [times],"increase of cutaneous bleeding time compared to the undosed animal ([3]; rabbit, dose sufficient to achieve about 97% inhibition of platelet aggregation) [times]"
"N=C(N)NCCC[C@@H]1NC(=O)[C@@H](Cc2ccc(O)cc2)NC(=O)CSC[C@@H](C(=O)N[C@@H](CCCCN)C(N)=O)NC(=O)[C@H](CC(=O)O)NC(=O)CNC1=O [7/3, cyclo-S-acetyl-dTyr--Arg--Gly--Asp--Cys--Lys--NH2] ({CH2CO}-[dY]RGDCK-NH2; thioether N-5)",17,201,1.95,1.95,–,–,–
"N=C(N)NCCC[C@H](NC(=O)[C@H](Cc1ccc(O)cc1)NC(=O)[C@@H]1CSCC(=O)N[C@H](Cc2ccc(O)cc2)C(=O)N[C@@H](CCCNC(=N)N)C(=O)NCC(=O)N[C@@H](CC(=O)O)C(=O)N1)C(N)=O [7/7, cyclo-S-acetyl-dTyr--Arg--Gly--Asp--Cys--Tyr--Arg--NH2] ({CH2CO}-[dY]RGDCYR-NH2; thioether N-5)",8.9,27,–,4.10,–,–,–
"N=C(N)NCCC[C@@H]1NC(=O)[C@@H](Cc2ccc(O)cc2)NC(=O)CSC[C@@H](C(=O)NCCCN)NC(=O)[C@H](CC(=O)O)NC(=O)CNC1=O [8/22, cyclo-S-acetyl-dTyr--Arg--Gly--Asp--Cys--NH--X (X = propyl amine)] ({CH2CO}-[dY]RGDC-{NH(CH2)3NH2}; thioether N-5)",15,176,–,1.27,–,–,–
"N=C(N)NCCC[C@@H]1NC(=O)[C@@H](Cc2ccc(O)cc2)NC(=O)CSC[C@@H](C(=O)N[C@@H](CCC(N)=O)C(N)=O)NC(=O)[C@H](CC(=O)O)NC(=O)CNC1=O [7/27, cyclo-S-acetyl-dTyr--Arg--Gly--Asp--Cys--Gln--NH2] ({CH2CO}-[dY]RGDCQ-NH2; thioether N-5)",3.1,–,–,0.77 and 0.93,did not increase cutaneous blood time,–,–
"N=C(N)NCCC[C@H](NC(=O)[C@@H]1CSCC(=O)N[C@H](Cc2ccc(O)cc2)C(=O)N[C@@H](CCCNC(=N)N)C(=O)NCC(=O)N[C@@H](CC(=O)O)C(=O)N1)C(N)=O [7/1, cyclo-S-acetyl-dTyr--Arg--Gly--Asp--Cys--Arg--NH2] ({CH2CO}-[dY]RGDCR-NH2; thioether N-5)",10,57,–,1.7,–,1.17,–
"N=C(N)NCCC[C@@H]1NC(=O)[C@@H](Cc2ccc(O)cc2)NC(=O)CSC[C@@H](C(=O)O)NC(=O)[C@H](CC(=O)O)NC(=O)CNC1=O [7/46, cyclo-S-acetyl-dTyr--Arg--Gly--Asp--Cys--OH] ({CH2CO}-[dY]RGDC-OH; thioether N-5)",3.2,3390,–,–,prolongation of bleeding time in vivo in both the rabbit and dog model,–,8.0
"N=C(N)NCCC[C@H](NC(=O)[C@@H]1CCCC(=O)N[C@H](Cc2ccc(O)cc2)C(=O)N[C@@H](CCCNC(=N)N)C(=O)NCC(=O)N[C@@H](CC(=O)O)C(=O)N1)C(N)=O [10/19, cyclo(1-5)dTyr--Arg--Gly--Asp--L-α-aminoadipic acid-Arg--NH2] ([dY]RGD[Aad]R-NH2; lactam N-5)",8.9,745,–,–,–,–,–
"N=C(N)NCCC[C@@H]1NC(=O)[C@@H](Cc2ccc(O)cc2)NC(=O)C(CCCCN)SC[C@@H](C(=O)O)NC(=O)[C@H](CC(=O)O)NC(=O)CNC1=O (single isomer, unassigned) [9/11, cyclo-S-2-L-(6-aminocaproyl)-Lys--dTyr--Arg--Gly--Asp--Cys--OH]",14.3,160,–,–,–,–,–
"N=C(N)NCCC[C@@H]1NC(=O)[C@@H](Cc2ccc(O)cc2)NC(=O)CSC[C@@H](C(=O)NCCCCC(=O)O)NC(=O)[C@H](CC(=O)O)NC(=O)CNC1=O [7/28, cyclo-S-(1-5)-dTyr--Arg--Gly--Asp--Cys--X (X = aminovaleric acid)] ({CH2CO}-[dY]RGDC[Ava]-OH; thioether N-5)",70,–,–,–,–,–,–
"N=C(N)NCCC[C@@H]1NC(=O)[C@@H](Cc2ccc(O)cc2)NC(=O)CSC[C@@H](C(=O)N[C@H](CCCCN)C(N)=O)NC(=O)[C@H](CC(=O)O)NC(=O)CNC1=O [7/4, cyclo-S-acetyl-dTyr--Arg--Gly--Asp--Cys--dLys--NH2] ({CH2CO}-[dY]RGDC[dK]-NH2; thioether N-5)",8.3,66,–,–,–,–,–
"N=C(N)NCCC[C@@H]1NC(=O)[C@@H](Cc2ccc(O)cc2)NC(=O)CSC[C@@H](C(=O)N[C@H](CCCN)C(N)=O)NC(=O)[C@H](CC(=O)O)NC(=O)CNC1=O [7/6, cyclo-S-acetyl-dTyr--Arg--Gly--Asp--Cys--dOrn--NH2] ({CH2CO}-[dY]RGDC[dOrn]-NH2; thioether N-5)",10.5,161,–,–,–,–,–
"N=C(N)NCCC[C@@H]1NC(=O)[C@@H](Cc2ccc(O)cc2)NC(=O)CSC[C@@H](C(=O)N[C@H](CCCNC(=N)N)C(N)=O)NC(=O)[C@H](CC(=O)O)NC(=O)CNC1=O [7/2, cyclo-S-acetyl-dTyr--Arg--Gly--Asp--Cys--dArg--NH2] ({CH2CO}-[dY]RGDC[dR]-NH2; thioether N-5)",13.5,42,–,–,–,–,–
"N=C(N)NCCC[C@@H]1NC(=O)[C@@H](Cc2ccc(O)cc2)NC(=O)CSC[C@@H](C(=O)NCCCCN)NC(=O)[C@H](CC(=O)O)NC(=O)CNC1=O [8/12, cyclo-S-acetyl-dTyr--Arg--Gly--Asp--Cys--NH--X (X = butylamine)] ({CH2CO}-[dY]RGDC-{NH(CH2)4NH2}; thioether N-5)",10,–,–,0.94,–,–,–
